Measurements: patent US20130030025A1, “USE OF POTASSIUM CHANNEL BLOCKERS TO TREAT CEREBRAL PALSY” (priority 2011, published 2013)

How the values were obtained:
[1] = Body weight of animals after MCAO; type: in vivo, Sprague Dawley rats
Description: Animals: 45 male Sprague Dawley Rats, 300-400 g (obtained from Charles River Laboratories, which arrived 7-10 days before surgery at 250-275 g) were used.
Treatment groups: Dosing was started 4 weeks after pMCAO surgery. During these 4 weeks, weekly behavioral assessments, as defined below, were performed. Two dose levels of 4-AP plus vehicle control were assessed, with treatment starting at 4 weeks after ischemic event. All dosing was via gastric gavage, volume not to exceed 2 mL/kg. Animals were given the first dose and behavioral assessments were performed starting 60 minutes after dosing. Animals then received the second dose that day at the appropriate time and b.i.d (preferably every 12 hours) thereafter for 2 more days (3 total days of dosing, 5 total doses). One hour after the 5th dose, animals were subjected to behavioral assessments as defined below. Following the final behavioral assessment, drug was withdrawn for 10 or 11 days, behavior was re-assessed, and then animals were re-challenged with a cross-over treatment (Phase II of Table 1B) as described in Tables 1A, 1B, followed by the same behavioral testing and dosing regimen. This cross-over was repeated one more time as well (Phase III of Table 1B) (see FIG. 2).

[2] = tested on: middle cerebral artery occlusion (MCAO) in rats; test: Cylinder test, total movement after MCAO; type: in vivo, Sprague Dawley rats
Description: The Y axis represents the behavioral score. […] Treatment groups: Dosing was started 4 weeks after pMCAO surgery. During these 4 weeks, weekly behavioral assessments, as defined below, were performed. Two dose levels of 4-AP plus vehicle control were assessed, with treatment starting at 4 weeks after ischemic event. All dosing was via gastric gavage, volume not to exceed 2 mL/kg. Animals were given the first dose and behavioral assessments were performed starting 60 minutes after dosing. Animals then received the second dose that day at the appropriate time and b.i.d (preferably every 12 hours) thereafter for 2 more days (3 total days of dosing, 5 total doses). One hour after the 5th dose, animals were subjected to behavioral assessments as defined below. Following the final behavioral assessment, drug was withdrawn for 10 or 11 days, behavior was re-assessed, and then animals were re-challenged with a cross-over treatment (Phase II of Table 1B) as described in Tables 1A, 1B, followed by the same behavioral testing and dosing regimen. This cross-over was repeated one more time as well (Phase III of Table 1B) (see FIG. 2). Behavioral test details: Behavioral evaluations were done by investigators blinded to treatment assignment. As described above, behavioral assessments were timed exactly with dosing times. Animals were given the first dose, behavioral assessments were performed starting 60 minutes later, and blood was collected 90 minutes after dosing. Animals then received the second dose that day at the appropriate time and b.i.d (preferably every 12 hours) thereafter for 2 more days (3 total days of dosing, 5 total doses). One hour after the 5th dose, animals were subjected to behavioral testing. Following the final behavioral assessment, drug was withdrawn for 10 or 11 days, behavior was re-assessed, and then animals were re-challenged with a cross-over treatment as described in Tables 1A, 1B, and FIG. 2, followed by the same behavioral testing and dosing regimen. Evaluation was performed at Day -1 (pre-operation), Day 7, Day 21, Day 30, Day 32, Day 44, Day 46, Day 58, Day 60. This test assessed limb use asymmetry. Rats were placed in a transparent cylinder (20 cm in diameter and 30 cm in height) for 3-6 minutes. A mirror was placed behind the cylinder to determine forelimb movements when animal was turned away from the camera. […] Simultaneous use of both left and right forelimbs while contacting the wall during a full rear was also scored. A total number of 20 forelimb placings were counted during a trial. Data was expressed in terms of percent use of the non-impaired and or impaired forelimb relative to the total number of limb use observations for wall movements.

[3] = Group I, D30, first dosing phase (high dose, inferred)
[4] = Group I, D32, first dosing phase (high dose, inferred)
[5] = Group I, D44, second dosing phase (low dose, inferred)
[6] = Group I, D46, second dosing phase (low dose, inferred)

## Nc1ccncc1 [4-AP, 4-aminopyridine]
[1]; [3]
  Weight (g), Mean: 453.1 g
[1]; [4]
  Weight (g), Mean: 436.3 g
[1]; [5]
  Weight (g), Mean: 476.2 g
[1]; [6]
  Weight (g), Mean: 471.1 g
[1]; Group II, D30, first dosing phase (low dose, inferred)
  Weight (g), Mean: 446.0 g
[1]; Group II, D32, first dosing phase (low dose, inferred)
  Weight (g), Mean: 438.1 g
[1]; Group II, D58, third dosing phase (high dose, inferred)
  Weight (g), Mean: 500.9 g
[1]; Group II, D60, third dosing phase (high dose, inferred)
  Weight (g), Mean: 483.0 g
[1]; Group III, D44, second dosing phase (high dose, inferred)
  Weight (g), Mean: 471.9 g
[1]; Group III, D46, second dosing phase (high dose, inferred)
  Weight (g), Mean: 451.0 g
[1]; Group III, D58, third dosing phase (low dose, inferred)
  Weight (g), Mean: 494.9 g
[1]; Group III, D60, third dosing phase (low dose, inferred)
  Weight (g), Mean: 485.1 g
[2]; [3]
  Cylinder Test (Total Movement), Mean: 9.47
[2]; [4]
  Cylinder Test (Total Movement), Mean: 16.20
[2]; [5]
  Cylinder Test (Total Movement), Mean: 39.20
[2]; [6]
  Cylinder Test (Total Movement), Mean: 23.87
[2]; Group II, D30, N 15
  Cylinder Test (Total Movement), Mean: 46.87
[2]; Group II, D32, N 15
  Cylinder Test (Total Movement), Mean: 36.20
[2]; Group II, D58, N 15
  Cylinder Test (Total Movement), Mean: 11.60
[2]; Group II, D60, N 15
  Cylinder Test (Total Movement), Mean: 12.93
[2]; Group III, D44, N 15
  Cylinder Test (Total Movement), Mean: 19.13
[2]; Group III, D46, N 15
  Cylinder Test (Total Movement), Mean: 18.73
[2]; Group III, D58, N 15
  Cylinder Test (Total Movement), Mean: 32.33
[2]; Group III, D60, N 15
  Cylinder Test (Total Movement), Mean: 26.67
